Reference: US8778966B2, “Quinolinone derivatives as PARP and tank inhibitors” (Janssen Pharmaceutica, NV, priority 2007, dated 2014)

Tests used:
HCT116 cells = experiment: Antiproliferative activity, Alamar Blue assay, HCT116 cells; format: cell-based, human; parameters: key to HCT116 antiproliferative activity pIC50: pIC50 = -log IC50 (IC50: conc. reducing growth to 50% of control); details: for IC50: Homo sapiens, HCT-116, HCT116 cells, read-out: HCT116 antiproliferative activity pIC50 (converted)
Method: Human colon carcinoma HCT116 cells obtained from the ATCC were cultured in McCoy's 5 A medium supplemented with 2 mM L-Glutamine, 50 μg/ml gentamicin and 10% heat inactivated fetal calf serum.
Resazurin was purchased from Aldrich (Prod. No. 199303). Potassium ferrocyanide, potassium ferricyanide, KH2PO4 and K2HPO4 were purchased from Sigma (Prod. Nos. P9387, P8131, P5655 and P8281, respectively).
Potassium Phosphate Buffer 0.1 M (PPB) was made as follows: 2.72 gram KH2PO4 and 13.86 gram K2HPO4 were dissolved in 500 ml milli-Q H2O, the pH was adjusted to pH 7.4 and the volume was brought to 1 litre with milli-Q H2O; the buffer was filter sterilised and stored at room temperature. Resazurin stock solution (PPB-A) was prepared fresh by dissolving 45 mg resazurin in 15 ml PBS. 30 mM potassium ferricyanide (PPB-B) was prepared by dissolving 0.987 gram potassium ferricyanide in 100 ml PPB. 30 mM potassium ferrocyanide (PPB-C) was prepared by dissolving 1.266 gram potassium ferrocyanide in 100 ml PPB.
Mixture of PPB-A, PPB-B and PPB-C was prepared by mixing equal volumes of the respective solutions. Resazurin work solution (herein termed “Alamar Blue” solution) was prepared by diluting said mixture 20×(vol/vol) in PPB and filter sterilising; the Alamar Blue solution could be kept at 4° C. for a maximum of 2 weeks.
For experiments in 384 wells plates the cells were seeded at a density of 4.5×10^3 cells/ml in Falcon 384-well culture plates (Life Technologies, Merelbeke, Belgium), black with clear bottom, in 45 μl culture medium. Cells were allowed to adhere to plastic for 24 hr. The tested compound was pre-diluted (1/50 in culture medium) and 5 μl pre-diluted compound was added to the wells. Following 4-day incubation, 10 μl of the Alamar Blue solution was added to each well and the cells were further incubated for 4 hrs (HCT116) or 24 hrs (PC-3) at 37° C. The fluorescence intensity was measured for each well on a Fluorescence plate reader (Fluorskan, Labsystems, 540 nm excitation and 590 nm emission)
The antiproliferative activity was calculated as percentage of remaining viable cells in treated versus control (untreated cells) conditions. Within an experiment, the result for each experimental condition is the mean of 3 replicate wells. When appropriate, the experiments were repeated to establish full concentration-response curves. When appropriate, IC50-values (concentration of the drug, needed to reduce cell growth to 50% of the control) were computed using probit analysis for graded data (Finney, D. J., Probit Analyses, 2nd Ed. Chapter 10, Graded Responses, Cambridge University Press, Cambridge 1962). Herein the effects of test compounds are expressed as pIC50 (the negative log value of the IC50-value) (see Table 2).

Human PARP-1 enzyme = target: T1, Human PARP-1 enzyme (Homo sapiens, UniProt P09874); experiment: In vitro Scintillation Proximity Assay (SPA) for PARP-1 inhibitory activity; format: biochemical; details: for IC50: read-out: in vitro SPA assay PARP-1 pIC50 (converted)
T1 construct: purchased Trevigen
How it was run: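 SPA assay: nicked-DNA-activated PARP-1 (0.1–0.2 μg/ml) ADP-ribosylates biotinylated histones (2 μg/ml) using [3H]-NAD+, 20 min at RT in Tris pH 8/DTT/MgCl2, stopped with 2 mM NAD+. Blank-subtracted cpm expressed as % control; IC50 by linear interpolation, reported as pIC50 (10−5 to 3×10−9 M tested).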

T1 sequence (P09874 whole entry): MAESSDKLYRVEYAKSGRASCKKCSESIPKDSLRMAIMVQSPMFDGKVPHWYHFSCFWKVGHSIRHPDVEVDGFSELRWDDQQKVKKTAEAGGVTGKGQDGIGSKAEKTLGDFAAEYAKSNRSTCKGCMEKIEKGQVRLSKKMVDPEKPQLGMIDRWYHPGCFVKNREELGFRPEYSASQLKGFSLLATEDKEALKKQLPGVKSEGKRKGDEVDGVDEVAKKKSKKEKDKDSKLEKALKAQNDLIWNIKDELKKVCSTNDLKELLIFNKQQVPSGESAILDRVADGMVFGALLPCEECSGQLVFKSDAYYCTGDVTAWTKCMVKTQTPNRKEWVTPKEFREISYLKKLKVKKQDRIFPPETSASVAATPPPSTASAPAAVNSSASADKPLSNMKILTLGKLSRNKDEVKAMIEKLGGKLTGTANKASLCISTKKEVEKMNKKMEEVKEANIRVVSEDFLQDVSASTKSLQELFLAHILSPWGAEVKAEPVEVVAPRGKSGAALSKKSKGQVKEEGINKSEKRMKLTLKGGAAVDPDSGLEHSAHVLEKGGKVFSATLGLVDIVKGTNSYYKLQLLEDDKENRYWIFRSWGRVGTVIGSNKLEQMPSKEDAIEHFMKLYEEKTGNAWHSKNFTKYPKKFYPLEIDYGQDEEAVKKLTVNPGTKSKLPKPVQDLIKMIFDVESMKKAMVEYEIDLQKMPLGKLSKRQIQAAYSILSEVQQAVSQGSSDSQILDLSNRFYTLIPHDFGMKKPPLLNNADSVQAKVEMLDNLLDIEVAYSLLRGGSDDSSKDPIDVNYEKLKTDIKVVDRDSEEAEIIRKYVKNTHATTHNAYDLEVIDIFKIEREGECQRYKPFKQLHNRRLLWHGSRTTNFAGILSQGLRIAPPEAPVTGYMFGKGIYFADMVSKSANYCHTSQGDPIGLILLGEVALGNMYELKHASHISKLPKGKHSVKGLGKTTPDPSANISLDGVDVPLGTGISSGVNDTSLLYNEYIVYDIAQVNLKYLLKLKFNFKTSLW

| Compound | IC50 (HCT116 cells) | IC50 (Human PARP-1 enzyme) | HCT116 antiproliferative activity pIC50 (HCT116 cells; HCT116 cells) | in vitro SPA assay PARP-1 pIC50 (Human PARP-1 enzyme) |
| --- | --- | --- | --- | --- |
| CCc1cc2ccc(C(C)(C#N)CC3COc4ccccc4O3)cc2[nH]c1=O (single isomer, unassigned) [Compound 48] |  |  | 5.8 | 6.4 |
| CCc1cc2ccc([C@@](C)(C#N)CCOc3ccccc3)cc2[nH]c1=O (single isomer, unassigned) [Compound 150] | 794 nM | 501 nM |  |  |
| Cc1cc2ccc([C@@](C)(C#N)CCOc3ccccc3)cc2[nH]c1=O (single isomer, unassigned) [Compound 164] | 1000 nM | 1580 nM |  |  |
| CCc1cc2ccc(C(C)(C#N)Cc3cccc(NC(=O)N4CCOCC4)c3)cc2[nH]c1=O (stereo not shown) [Compound 16] | > 10000 nM | 158 nM |  |  |
| CCc1cc2ccc(C(C)(C#N)Cc3ccc(C(F)(F)F)cc3)cc2[nH]c1=O (stereo not shown) [Compound 108] | 6310 nM | 1260 nM |  |  |
| CCc1cc2ccc(C(C)(C#N)Cc3ccc(OC(F)(F)F)cc3)cc2[nH]c1=O (stereo not shown) [Compound 114] | 1580 nM | 1000 nM |  |  |
| CCc1cc2ccc(C(C)(C#N)Cc3c(F)c(F)c(F)c(F)c3F)cc2[nH]c1=O (stereo not shown) [Compound 116] | 631 nM | 1000 nM |  |  |
| CCc1cc2ccc(C(C)(C#N)Cc3cccc(F)c3F)cc2[nH]c1=O (stereo not shown) [Compound 120] | 251 nM | 631 nM |  |  |
| CCc1cc2ccc(C(C)(C#N)Cc3cccc(Cl)c3Cl)cc2[nH]c1=O (stereo not shown) [Compound 121] | 158 nM | 1580 nM |  |  |
| CCc1cc2ccc(C(C)(C#N)Cc3ccc4c(c3)OCCO4)cc2[nH]c1=O (stereo not shown) [Compound 124] | 501 nM | 501 nM |  |  |
| CCc1cc2ccc(C(C)(C#N)Cc3cc(C)cc(C)c3)cc2[nH]c1=O (stereo not shown) [Compound 125] | 200 nM | 1000 nM |  |  |
| CCc1cc2ccc(C(C)(C#N)Cc3cc(F)cc(Cl)c3)cc2[nH]c1=O (stereo not shown) [Compound 126] | 200 nM | 794 nM |  |  |
| CCc1cc2ccc(C(C)(C#N)Cc3cc(F)cc(C(F)(F)F)c3)cc2[nH]c1=O (stereo not shown) [Compound 127] | 501 nM | 1000 nM |  |  |
| CCc1cc2ccc(C(C)(C#N)Cc3cc(F)cc(F)c3)cc2[nH]c1=O (stereo not shown) [Compound 128] | 126 nM | 501 nM |  |  |
| CCc1cc2ccc(C(C)(C#N)Cc3cccc(Cl)c3F)cc2[nH]c1=O (stereo not shown) [Compound 130] | 158 nM | 631 nM |  |  |
| CCc1cc2ccc(C(C)(C#N)Cc3cc(C(F)(F)F)cc(C(F)(F)F)c3)cc2[nH]c1=O (stereo not shown) [Compound 131] | 6310 nM | 1580 nM |  |  |
| CCc1cc2ccc(C(C)(C#N)Cc3cc(Br)cc(Br)c3)cc2[nH]c1=O (stereo not shown) [Compound 133] | 251 nM | 794 nM |  |  |
| CCc1cc2ccc(C(C)(C#N)Cc3cccc(C(F)(F)F)c3F)cc2[nH]c1=O (stereo not shown) [Compound 134] | 501 nM | 1260 nM |  |  |
| CCc1cc2ccc(C(C)(C#N)Cc3ccc(F)cc3F)cc2[nH]c1=O (stereo not shown) [Compound 137] | 251 nM | 1260 nM |  |  |
| CCc1cc2ccc(C(C)(C#N)Cc3ccc(F)cc3Br)cc2[nH]c1=O (stereo not shown) [Compound 139] | 126 nM | 1260 nM |  |  |
| CCc1cc2ccc(C(C)(C#N)Cc3cc(Cl)cc(Cl)c3)cc2[nH]c1=O (stereo not shown) [Compound 141] | 126 nM | 1000 nM |  |  |
| CCOc1ccccc1OCCC(C)(C#N)c1ccc2cc(CC)c(=O)[nH]c2c1 (stereo not shown) [Compound 142] | 316 nM | 631 nM |  |  |
| CCc1cc2ccc(C(C)(C#N)CCOc3ccc(F)cc3)cc2[nH]c1=O (stereo not shown) [Compound 144] | 501 nM | 251 nM |  |  |
| CCc1cc2ccc(C(C)(C#N)CCOc3ccccc3)cc2[nH]c1=O (stereo not shown) [Compound 145] | 398 nM | 200 nM |  |  |

More lines, now with the values ahead:

| IC50 (HCT116 cells) | IC50 (Human PARP-1 enzyme) | HCT116 antiproliferative activity pIC50 (HCT116 cells; HCT116 cells) | in vitro SPA assay PARP-1 pIC50 (Human PARP-1 enzyme) | Compound |
| --- | --- | --- | --- | --- |
| 31.6 nM | 631 nM |  |  | C#Cc1cccc(CC(C)(C#N)c2ccc3cc(CC)c(=O)[nH]c3c2)c1 (racemic) [Compound 168] |
| > 10000 nM | 79.4 nM |  |  | CCc1cc2ccc(C(C)(C#N)Cc3cccc(C(=O)O)c3)cc2[nH]c1=O (stereo not shown) [Compound 10] |
| 1580 nM | 631 nM |  |  | CCc1cc2ccc(C(C)(C#N)Cc3cccc(-c4nc(C)no4)c3)cc2[nH]c1=O (stereo not shown) [Compound 11] |
| 31.6 nM | 501 nM |  |  | CCc1cc2ccc(C(C)(C#N)Cc3cccc(C(=O)OC)c3)cc2[nH]c1=O (stereo not shown) [Compound 12] |
| 7940 nM | 398 nM |  |  | CCc1cc2ccc(C(C)(C#N)Cc3cccc(C(=O)NC)c3)cc2[nH]c1=O (stereo not shown) [Compound 13] |
| > 10000 nM | 398 nM |  |  | CCc1cc2ccc(C(C)(C#N)Cc3cccc(NS(C)(=O)=O)c3)cc2[nH]c1=O (stereo not shown) [Compound 14] |
| 1000 nM | 316 nM |  |  | CCc1cc2ccc(C(C)(C#N)Cc3cccc(N)c3)cc2[nH]c1=O (stereo not shown) [Compound 15] |
| 398 nM | 631 nM |  |  | CCc1cc2ccc(C(C)(C#N)Cc3ccccc3Br)cc2[nH]c1=O (stereo not shown) [Compound 104] |
| 251 nM | 794 nM |  |  | CCc1cc2ccc(C(C)(C#N)Cc3ccccc3C)cc2[nH]c1=O (stereo not shown) [Compound 105] |
| 398 nM | 398 nM |  |  | CCc1cc2ccc(C(C)(C#N)Cc3ccccc3F)cc2[nH]c1=O (stereo not shown) [Compound 106] |
| 200 nM | 251 nM |  |  | CCc1cc2ccc(C(C)(C#N)Cc3cccc(C)c3)cc2[nH]c1=O (stereo not shown) [Compound 107] |
| 251 nM | 794 nM |  |  | CCc1cc2ccc(C(C)(C#N)Cc3cccc(C(F)(F)F)c3)cc2[nH]c1=O (stereo not shown) [Compound 109] |
| 158 nM | 794 nM |  |  | CCc1cc2ccc(C(C)(C#N)Cc3cccc(OC(F)(F)F)c3)cc2[nH]c1=O (stereo not shown) [Compound 110] |
| 5010 nM | 251 nM |  |  | CCc1cc2ccc(C(C)(C#N)Cc3ccc(C#N)cc3)cc2[nH]c1=O (stereo not shown) [Compound 111] |
| 316 nM | 200 nM |  |  | CCc1cc2ccc(C(C)(C#N)Cc3cccc(F)c3)cc2[nH]c1=O (stereo not shown) [Compound 112] |
| 398 nM | 251 nM |  |  | CCc1cc2ccc(C(C)(C#N)Cc3cccc(OC)c3)cc2[nH]c1=O (stereo not shown) [Compound 113] |
| 631 nM | 316 nM |  |  | CCc1cc2ccc(C(C)(C#N)Cc3ccc(F)cc3)cc2[nH]c1=O (stereo not shown) [Compound 115] |
| 2510 nM | 398 nM |  |  | CCc1cc2ccc(C(C)(C#N)Cc3ccc(C)cc3)cc2[nH]c1=O (stereo not shown) [Compound 117] |
| 2000 nM | 398 nM |  |  | CCc1cc2ccc(C(C)(C#N)Cc3ccc(Br)cc3)cc2[nH]c1=O (stereo not shown) [Compound 118] |
| 2000 nM | 316 nM |  |  | CCc1cc2ccc(C(C)(C#N)Cc3ccc(OC)cc3)cc2[nH]c1=O (stereo not shown) [Compound 119] |
| 251 nM | 1260 nM |  |  | CCc1cc2ccc(C(C)(C#N)Cc3ccc4ccccc4c3)cc2[nH]c1=O (stereo not shown) [Compound 122] |
| 3980 nM | 158 nM |  |  | CCc1cc2ccc(C(C)(C#N)Cc3ccc4c(c3)nnn4C)cc2[nH]c1=O (stereo not shown) [Compound 123] |
| 1580 nM | 631 nM |  |  | CCc1cc2ccc(C(C)(C#N)Cc3cccc(S(C)(=O)=O)c3)cc2[nH]c1=O (stereo not shown) [Compound 129] |
| 398 nM | 1260 nM |  |  | CCc1cc2ccc(C(C)(C#N)Cc3cccc(C)c3F)cc2[nH]c1=O (stereo not shown) [Compound 132] |
| 316 nM | 1000 nM |  |  | CCc1cc2ccc(C(C)(C#N)Cc3c(Cl)cccc3Cl)cc2[nH]c1=O (stereo not shown) [Compound 135] |
| 316 nM | 1580 nM |  |  | CCc1cc2ccc(C(C)(C#N)Cc3c(Cl)cccc3Br)cc2[nH]c1=O (stereo not shown) [Compound 136] |
| 251 nM | 1260 nM |  |  | CCc1cc2ccc(C(C)(C#N)Cc3c(F)cccc3F)cc2[nH]c1=O (stereo not shown) [Compound 138] |
| 200 nM | 631 nM |  |  | CCc1cc2ccc(C(C)(C#N)Cc3cccc(Cl)c3)cc2[nH]c1=O (stereo not shown) [Compound 140] |
| 501 nM | 794 nM |  |  | CCc1cc2ccc(C(C)(C#N)CCOc3cccc(C)c3)cc2[nH]c1=O (stereo not shown) [Compound 143] |
